Values joined by “and” are separate entries in the source; they are usually repeats but may differ in a detail not shown here. Equal values may be shown once.
Experiments:
Assay type in all cases: cell-based
Design in all cases: unit not given here
lung cancer cells (A549) = test system: lung cancer cells (A549)
[1] = test system: ovarian cancer cells (SK-OV-3)
[2] = test system: skin cancer cells (SK-MEL-2)
[3] = test system: colorectal cancer cells (HCT15)

CC1=CC(=O)OCC23CCC(C)(O)C4CC5(O)C(CC(OC(=O)C=CC=CC(C(C)O)OCC1)C52C)OC43 [compound 1, (1R,4Z,6E,8R,12E,16aR,19S,20S,20aR,22R,23S,23aS)-19,23-dihydroxy-8-((R)-1-hydroxyethyl)-12,19,23a-trimethyl-10,11,17,18,19,20,20a,22,23,23a-decahydro-1H-1,22:20,23-dimethano[1,6,12]trioxacyclooctadecino[3,4-d]chromene-3,14(8H,16H)-dione]
Anticancer activity (value at given concentration) (lung cancer cells (A549)): 97.91 and 93.12 and 93.03 and 94.31 and 92.44 and 95.94
Anticancer activity (value at given concentration) [1]: 103.77 and 87.76 and 98.54 and 100.24 and 89.90 and 95.08
Anticancer activity (value at given concentration) [2]: 96.98 and 91.60 and 95.73 and 101.17 and 96.51 and 96.60
Anticancer activity (value at given concentration) [3]: 103.41 and 91.11 and 101.55 and 101.52 and 102.70 and 101.58
